In PubChem BioAssay (NCI):
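Five concentrations, 48 hours, 96-well plates. TGI: total growth inhibition.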

Assays:
Assay in all cases: growth of human tumour cells (NCI), 48 h
[1] = test system: COLO 205 colon
[2] = test system: HCC-2998 colon
[3] = test system: HCT-116 colon
[4] = test system: HL-60(TB) leukemia
[5] = test system: HOP-92 NSCLC
[6] = test system: HS 578T breast
[7] = test system: K-562 leukemia
[8] = test system: MALME-3M melanoma
[9] = test system: MDA-N
[10] = test system: OVCAR-8 ovarian
[11] = test system: RPMI-8226 leukemia
[12] = test system: SK-MEL-2 melanoma
[13] = test system: SK-MEL-28 melanoma
[14] = test system: SK-OV-3 ovarian
[15] = test system: SW-620 colon
[16] = test system: U251 CNS
[17] = test system: UACC-257 melanoma
[18] = test system: UACC-62 melanoma

SMILES	TGI [1] [µM]	TGI [2] [µM]	TGI [3] [µM]	TGI [4] [µM]	TGI [5] [µM]	TGI [6] [µM]	TGI [7] [µM]	TGI [8] [µM]	TGI [9] [µM]	TGI [10] [µM]	TGI [11] [µM]	TGI [12] [µM]	TGI [13] [µM]	TGI [14] [µM]	TGI [15] [µM]	TGI [16] [µM]	TGI [17] [µM]	TGI [18] [µM]
Cc1ccc(/C=N/Nc2nncc3ccccc23)s1	> 100	> 100	> 100	> 100	> 100	> 100	> 100	> 100	> 100	> 100	> 100	> 100	> 100	> 100	> 100	> 100	> 100	> 100
CN(C)CCNC1=CC(=O)c2c(O)ccc(O)c2C1=O	3.63	13.5	9.05	6.53	27.8	53.6	> 100	2.62	3.55	25.9	> 68.2	25.3	26.3	83.1	10.1	24.4	5.61	5.63
CCOP(=O)(OCC)/C(C#N)=C/c1cccn1N(C)C	> 100	> 100	> 100	> 100	> 100	> 100	> 100	> 100	> 100	> 100	> 100	> 100	> 100	> 100	> 100	> 100	> 100	> 100
